Results: PubChem BioAssay (NCI)
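48-hour exposure; five concentrations; linearly interpolated endpoints. TGI marks complete inhibition of growth.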

Columns and labels:
Experiment in all cases: growth of human tumour cells (NCI), 48 h
UACC-62 melanoma = system: UACC-62 melanoma
ACHN renal = system: ACHN renal
SNB-19 CNS = system: SNB-19 CNS
NCI-H522 lung = system: NCI-H522 lung
RXF 393 renal = system: RXF 393 renal
COLO 205 colon = system: COLO 205 colon
UACC-257 melanoma = system: UACC-257 melanoma
HCT-116 colon = system: HCT-116 colon
SW-620 colon = system: SW-620 colon
DMS 114 small cell lung = system: DMS 114 small cell lung
SF-295 CNS = system: SF-295 CNS
NCI-H460 lung = system: NCI-H460 lung
DMS 273 small cell lung = system: DMS 273 small cell lung
NCI-H23 lung = system: NCI-H23 lung
CCRF-CEM leukemia = system: CCRF-CEM leukemia
OVCAR-5 ovarian = system: OVCAR-5 ovarian
NCI-H226 lung = system: NCI-H226 lung
786-0 renal = system: 786-0 renal
OVCAR-8 ovarian = system: OVCAR-8 ovarian
UO-31 renal = system: UO-31 renal
A498 renal = system: A498 renal
SK-MEL-2 melanoma = system: SK-MEL-2 melanoma
OVCAR-4 ovarian = system: OVCAR-4 ovarian
HOP-62 NSCLC = system: HOP-62 NSCLC
SK-OV-3 ovarian = system: SK-OV-3 ovarian
A549 NSCLC = system: A549 NSCLC
SN12C renal = system: SN12C renal
TK-10 renal = system: TK-10 renal
HOP-92 NSCLC = system: HOP-92 NSCLC
HL-60(TB) leukemia = system: HL-60(TB) leukemia
SNB-78 CNS = system: SNB-78 CNS
OVCAR-3 ovarian = system: OVCAR-3 ovarian
HT29 colon = system: HT29 colon
CAKI-1 renal = system: CAKI-1 renal
SF-539 CNS = system: SF-539 CNS
K-562 leukemia = system: K-562 leukemia
KM12 colon = system: KM12 colon
SK-MEL-28 melanoma = system: SK-MEL-28 melanoma
M19-MEL melanoma = system: M19-MEL melanoma
RPMI-8226 leukemia = system: RPMI-8226 leukemia
SK-MEL-5 melanoma = system: SK-MEL-5 melanoma
MALME-3M melanoma = system: MALME-3M melanoma
EKVX NSCLC = system: EKVX NSCLC
KM20L2 colon = system: KM20L2 colon
U251 CNS = system: U251 CNS
M14 melanoma = system: M14 melanoma
DU-145 prostate = system: DU-145 prostate
HCC-2998 colon = system: HCC-2998 colon
MOLT-4 leukemia = system: MOLT-4 leukemia
LOX IMVI melanoma = system: LOX IMVI melanoma
HCT-15 colon = system: HCT-15 colon
BT-549 breast = system: BT-549 breast
MDA-MB-435 = system: MDA-MB-435
SR leukemia = system: SR leukemia
MCF7 breast = system: MCF7 breast
MDA-MB-231 breast = system: MDA-MB-231 breast
SF-268 CNS = system: SF-268 CNS
HS 578T breast = system: HS 578T breast
PC-3 prostate = system: PC-3 prostate
IGROV1 ovarian = system: IGROV1 ovarian
SNB-75 CNS = system: SNB-75 CNS
NCI/ADR-RES ovarian = system: NCI/ADR-RES ovarian
MDA-N = system: MDA-N
T-47D breast = system: T-47D breast
LXFL 529 NSCLC = system: LXFL 529 NSCLC

Cc1cc(N(CCC#N)CCC#N)ccc1N=Nc1cccc(Cl)c1
TGI (UACC-62 melanoma): > 100 µM | TGI (ACHN renal): > 100 µM | TGI (SNB-19 CNS): > 100 µM | TGI (NCI-H522 lung): > 100 µM | TGI (RXF 393 renal): > 100 µM | TGI (COLO 205 colon): > 100 µM | TGI (UACC-257 melanoma): > 100 µM | TGI (HCT-116 colon): > 100 µM | TGI (SW-620 colon): > 100 µM | TGI (DMS 114 small cell lung): > 100 µM | TGI (SF-295 CNS): > 100 µM | TGI (NCI-H460 lung): > 100 µM | TGI (DMS 273 small cell lung): > 100 µM | TGI (NCI-H23 lung): > 100 µM | TGI (CCRF-CEM leukemia): > 100 µM | TGI (OVCAR-5 ovarian): > 100 µM | TGI (NCI-H226 lung): > 100 µM | TGI (786-0 renal): > 100 µM | TGI (OVCAR-8 ovarian): > 100 µM | TGI (UO-31 renal): > 100 µM | TGI (A498 renal): > 100 µM | TGI (SK-MEL-2 melanoma): > 100 µM | TGI (OVCAR-4 ovarian): > 100 µM | TGI (HOP-62 NSCLC): > 100 µM | TGI (SK-OV-3 ovarian): > 100 µM | TGI (A549 NSCLC): > 100 µM | TGI (SN12C renal): > 100 µM | TGI (TK-10 renal): > 100 µM | TGI (HOP-92 NSCLC): > 100 µM | TGI (HL-60(TB) leukemia): > 100 µM | TGI (SNB-78 CNS): > 100 µM | TGI (OVCAR-3 ovarian): > 100 µM | TGI (HT29 colon): > 100 µM | TGI (CAKI-1 renal): > 100 µM | TGI (SF-539 CNS): > 100 µM | TGI (K-562 leukemia): > 100 µM | TGI (KM12 colon): > 100 µM | TGI (SK-MEL-28 melanoma): > 100 µM | TGI (M19-MEL melanoma): > 100 µM | TGI (RPMI-8226 leukemia): > 100 µM | TGI (SK-MEL-5 melanoma): > 100 µM | TGI (MALME-3M melanoma): > 100 µM | TGI (EKVX NSCLC): > 100 µM | TGI (KM20L2 colon): > 100 µM | TGI (U251 CNS): > 100 µM | TGI (M14 melanoma): > 100 µM

C#C[C@]1(O)CC[C@H]2[C@@H]3CCC4=C/C(=N\OCCN(CC)CC)CC[C@]4(C)[C@H]3CC[C@@]21C
TGI (UACC-62 melanoma): 11.3 µM | TGI (ACHN renal): 28.1 µM | TGI (SNB-19 CNS): 18.5 µM | TGI (NCI-H522 lung): 5.76 µM | TGI (RXF 393 renal): 7.35 µM | TGI (COLO 205 colon): 11.5 µM | TGI (UACC-257 melanoma): 16.9 µM | TGI (DU-145 prostate): 25.8 µM | TGI (HCT-116 colon): 17.6 µM | TGI (SW-620 colon): > 29.1 µM | TGI (SF-295 CNS): 5.21 µM | TGI (NCI-H460 lung): 21 µM | TGI (HCC-2998 colon): 25.9 µM | TGI (MOLT-4 leukemia): 1.04 µM | TGI (LOX IMVI melanoma): 13.1 µM | TGI (NCI-H23 lung): 19.7 µM | TGI (CCRF-CEM leukemia): 44.9 µM | TGI (HCT-15 colon): 25.3 µM | TGI (OVCAR-5 ovarian): 32.2 µM | TGI (NCI-H226 lung): 29.8 µM | TGI (BT-549 breast): 31.5 µM | TGI (MDA-MB-435): 15.2 µM | TGI (786-0 renal): 9.42 µM | TGI (OVCAR-8 ovarian): 24.6 µM | TGI (UO-31 renal): 15.8 µM | TGI (A498 renal): 28.9 µM | TGI (SR leukemia): > 31.3 µM | TGI (SK-MEL-2 melanoma): 11.3 µM | TGI (OVCAR-4 ovarian): 50.4 µM | TGI (HOP-62 NSCLC): 16 µM | TGI (SK-OV-3 ovarian): 34.4 µM | TGI (A549 NSCLC): > 41.4 µM | TGI (SN12C renal): 46.8 µM | TGI (TK-10 renal): 23.5 µM | TGI (HOP-92 NSCLC): 52.9 µM | TGI (MCF7 breast): 21.3 µM | TGI (HL-60(TB) leukemia): 3.42 µM | TGI (MDA-MB-231 breast): 35.2 µM | TGI (SF-268 CNS): 10.8 µM | TGI (OVCAR-3 ovarian): 8.91 µM | TGI (HT29 colon): 14.6 µM | TGI (CAKI-1 renal): 39.7 µM | TGI (HS 578T breast): 7.51 µM | TGI (SF-539 CNS): 10.1 µM | TGI (PC-3 prostate): 16.1 µM | TGI (K-562 leukemia): 11.9 µM | TGI (KM12 colon): 11.4 µM | TGI (SK-MEL-28 melanoma): 25.8 µM | TGI (IGROV1 ovarian): 17.1 µM | TGI (RPMI-8226 leukemia): 5.83 µM | TGI (SK-MEL-5 melanoma): 7.37 µM | TGI (SNB-75 CNS): 10.9 µM | TGI (NCI/ADR-RES ovarian): 8.5 µM | TGI (MALME-3M melanoma): 10.2 µM | TGI (EKVX NSCLC): 26.6 µM | TGI (MDA-N): 6.24 µM | TGI (T-47D breast): 40.9 µM | TGI (U251 CNS): > 38.3 µM | TGI (M14 melanoma): 10.9 µM

COc1ccc2c(c1)CC[C@@H]1C2CC[C@]2(C)C(=O)N(N)C(=O)CC12 (some centres undefined)
TGI (UACC-62 melanoma): > 100 µM | TGI (ACHN renal): > 100 µM | TGI (SNB-19 CNS): > 100 µM | TGI (NCI-H522 lung): > 100 µM | TGI (COLO 205 colon): > 100 µM | TGI (UACC-257 melanoma): > 100 µM | TGI (HCT-116 colon): > 100 µM | TGI (DMS 114 small cell lung): > 100 µM | TGI (SF-295 CNS): > 100 µM | TGI (NCI-H460 lung): > 100 µM | TGI (MOLT-4 leukemia): > 100 µM | TGI (NCI-H23 lung): > 100 µM | TGI (CCRF-CEM leukemia): > 100 µM | TGI (OVCAR-5 ovarian): > 100 µM | TGI (786-0 renal): > 100 µM | TGI (UO-31 renal): > 100 µM | TGI (A498 renal): > 100 µM | TGI (SR leukemia): > 100 µM | TGI (SK-MEL-2 melanoma): > 100 µM | TGI (LXFL 529 NSCLC): > 100 µM | TGI (OVCAR-4 ovarian): > 100 µM | TGI (HOP-62 NSCLC): > 100 µM | TGI (SK-OV-3 ovarian): > 100 µM | TGI (HOP-92 NSCLC): > 100 µM | TGI (SNB-78 CNS): > 100 µM | TGI (SF-268 CNS): > 100 µM | TGI (OVCAR-3 ovarian): > 100 µM | TGI (HT29 colon): > 100 µM | TGI (K-562 leukemia): > 100 µM | TGI (KM12 colon): > 100 µM | TGI (SK-MEL-28 melanoma): > 100 µM | TGI (M19-MEL melanoma): > 100 µM | TGI (IGROV1 ovarian): > 100 µM | TGI (RPMI-8226 leukemia): > 100 µM | TGI (SNB-75 CNS): > 100 µM | TGI (MALME-3M melanoma): > 100 µM | TGI (KM20L2 colon): > 100 µM | TGI (U251 CNS): > 100 µM | TGI (M14 melanoma): > 100 µM
